The results in this text go back to patent US20250281491A1, “DUAL FUNCTIONING IMMUNE MODULATING COMPOUNDS, FORMULATIONS, AND USES THEREOF” (THE REGENTS OF THE UNIVERSITY OF MICHIGAN, priority 2022, published 2025).

The target in one assay is T1, PI3Kγ (Homo sapiens, UniProt P48736).
T1 construct: purchased BPS Bioscience (San Diego, CA, USA)
The assay can be described thus: PI3K inhibition assay (BPS Bioscience kit, ADP-Glo luminescence). The format is biochemical. The conditions noted are these: for IC50: purified enzyme. Here is the method: (§1) The IC50 of compounds to inhibit different PI3K isoforms were calculated using Prism 8.
(§2) PI3Kα, PI3K β, PI3Kγ, and PI3Kδ binding assay kits were obtained from BPS Bioscience (San Diego, CA, USA). The assays were conducted according to manufacturer's protocols in 96-well microplates. Briefly, 5 μL PI3K lipid substrate was added to all wells. […] 10 μL of PI3Ka (0.5 ng/μL, PI3K β 4 ng/μL, PI3Kγ 4 ng/μL, or PI3Kδ 13 ng/μL) was added to initiate reaction. The plate was carefully shaken, and the reaction mixture was incubated at 30° C. for 40 minutes. Then 25 μL ADP-Glo reagent (Promega, Madison, WI, USA) was added to each well and the reactions were performed in darkness for 45 minutes. Finally, 50 μL of kinase detection reagent (Promega, Madison, WI, USA) was added to each well and the reactions were performed in darkness for 30 minutes. The luminescence of the reaction mixture was read on a Synergy 2 microplate reader (Biotek).
For orientation: ADP-Glo first removes unused ATP, then detects ADP through luciferase.

The next assay deals with T2, PI3K β (Homo sapiens, UniProt P42338).
T2 construct: purchased BPS Bioscience (San Diego, CA, USA)
T2 sequence (P42338 whole entry): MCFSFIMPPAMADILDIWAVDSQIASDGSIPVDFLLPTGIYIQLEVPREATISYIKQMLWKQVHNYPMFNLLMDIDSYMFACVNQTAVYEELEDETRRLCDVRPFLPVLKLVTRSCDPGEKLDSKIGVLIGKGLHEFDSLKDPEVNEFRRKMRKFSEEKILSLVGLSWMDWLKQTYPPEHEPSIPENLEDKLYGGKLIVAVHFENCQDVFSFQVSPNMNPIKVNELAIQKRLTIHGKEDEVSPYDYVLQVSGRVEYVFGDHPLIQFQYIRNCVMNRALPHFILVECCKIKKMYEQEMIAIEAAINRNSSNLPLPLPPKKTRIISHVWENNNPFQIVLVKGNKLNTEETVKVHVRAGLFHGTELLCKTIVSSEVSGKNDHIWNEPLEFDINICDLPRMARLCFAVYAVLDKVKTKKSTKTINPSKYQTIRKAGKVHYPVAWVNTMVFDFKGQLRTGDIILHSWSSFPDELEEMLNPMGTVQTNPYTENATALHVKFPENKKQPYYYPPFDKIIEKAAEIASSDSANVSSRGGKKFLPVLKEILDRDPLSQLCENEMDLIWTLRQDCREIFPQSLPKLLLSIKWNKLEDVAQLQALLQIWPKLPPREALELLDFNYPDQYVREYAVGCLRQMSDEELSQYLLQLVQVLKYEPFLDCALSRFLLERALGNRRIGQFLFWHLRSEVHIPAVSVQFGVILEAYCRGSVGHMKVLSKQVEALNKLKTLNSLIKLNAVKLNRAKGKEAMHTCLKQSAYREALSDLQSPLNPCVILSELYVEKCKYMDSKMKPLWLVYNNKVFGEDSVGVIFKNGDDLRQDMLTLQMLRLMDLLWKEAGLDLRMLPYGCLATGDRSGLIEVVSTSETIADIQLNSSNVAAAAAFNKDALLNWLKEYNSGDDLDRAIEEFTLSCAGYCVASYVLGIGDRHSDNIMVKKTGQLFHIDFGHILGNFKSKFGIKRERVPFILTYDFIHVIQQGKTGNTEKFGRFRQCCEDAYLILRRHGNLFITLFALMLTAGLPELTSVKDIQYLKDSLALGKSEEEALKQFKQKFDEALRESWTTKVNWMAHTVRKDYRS
T2 sequence (P27986 whole entry partner): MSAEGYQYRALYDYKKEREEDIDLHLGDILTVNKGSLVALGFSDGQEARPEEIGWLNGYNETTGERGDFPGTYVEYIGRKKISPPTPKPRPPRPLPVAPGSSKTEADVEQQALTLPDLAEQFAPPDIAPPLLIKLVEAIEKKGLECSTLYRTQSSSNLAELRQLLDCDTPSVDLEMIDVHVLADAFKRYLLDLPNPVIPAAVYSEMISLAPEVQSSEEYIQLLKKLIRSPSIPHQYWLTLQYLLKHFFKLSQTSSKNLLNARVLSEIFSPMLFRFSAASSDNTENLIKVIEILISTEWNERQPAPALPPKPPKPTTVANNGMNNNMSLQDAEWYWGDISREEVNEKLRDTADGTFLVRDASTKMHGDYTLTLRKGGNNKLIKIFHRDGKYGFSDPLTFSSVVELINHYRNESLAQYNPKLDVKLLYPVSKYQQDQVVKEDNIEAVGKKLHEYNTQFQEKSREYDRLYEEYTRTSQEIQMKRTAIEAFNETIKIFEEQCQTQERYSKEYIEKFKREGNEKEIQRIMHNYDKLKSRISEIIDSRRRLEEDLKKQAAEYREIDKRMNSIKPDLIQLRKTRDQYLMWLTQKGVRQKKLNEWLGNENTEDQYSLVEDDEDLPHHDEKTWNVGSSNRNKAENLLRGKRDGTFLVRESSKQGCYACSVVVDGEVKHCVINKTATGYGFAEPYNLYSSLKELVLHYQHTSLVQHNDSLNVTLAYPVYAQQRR
The description is as above. Format: biochemical. To be noted: for IC50: purified enzyme. The protocol: as §1, §2

The target of another assay is T3, PI3Kδ (Homo sapiens, UniProt O00329).
T3 construct: purchased BPS Bioscience (San Diego, CA, USA)
T3 sequence (O00329 whole entry): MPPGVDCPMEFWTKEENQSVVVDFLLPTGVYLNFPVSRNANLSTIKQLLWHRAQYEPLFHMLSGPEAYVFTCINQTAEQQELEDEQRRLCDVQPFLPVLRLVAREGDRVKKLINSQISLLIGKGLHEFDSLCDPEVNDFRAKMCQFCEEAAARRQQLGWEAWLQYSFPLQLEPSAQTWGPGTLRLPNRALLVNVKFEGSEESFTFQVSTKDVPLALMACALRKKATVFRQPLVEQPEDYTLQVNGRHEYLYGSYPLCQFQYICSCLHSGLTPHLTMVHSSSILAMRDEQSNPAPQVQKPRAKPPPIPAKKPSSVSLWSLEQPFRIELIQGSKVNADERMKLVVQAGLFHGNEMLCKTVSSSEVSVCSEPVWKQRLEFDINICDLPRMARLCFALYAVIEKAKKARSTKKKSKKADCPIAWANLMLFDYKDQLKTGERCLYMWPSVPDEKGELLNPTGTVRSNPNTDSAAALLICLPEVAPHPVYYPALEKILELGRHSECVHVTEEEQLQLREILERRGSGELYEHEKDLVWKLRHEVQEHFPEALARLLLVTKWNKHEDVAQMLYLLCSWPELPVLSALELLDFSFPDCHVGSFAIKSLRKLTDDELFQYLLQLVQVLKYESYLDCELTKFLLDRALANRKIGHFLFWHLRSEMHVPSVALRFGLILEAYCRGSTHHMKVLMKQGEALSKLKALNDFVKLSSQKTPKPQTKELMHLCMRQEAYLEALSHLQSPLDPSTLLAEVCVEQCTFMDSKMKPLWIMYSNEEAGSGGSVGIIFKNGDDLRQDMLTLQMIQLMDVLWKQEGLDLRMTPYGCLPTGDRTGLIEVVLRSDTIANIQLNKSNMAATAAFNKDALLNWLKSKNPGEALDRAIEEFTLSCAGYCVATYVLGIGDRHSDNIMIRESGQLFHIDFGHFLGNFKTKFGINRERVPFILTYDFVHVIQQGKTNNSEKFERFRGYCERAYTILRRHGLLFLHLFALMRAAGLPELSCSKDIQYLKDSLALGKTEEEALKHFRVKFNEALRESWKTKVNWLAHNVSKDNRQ
T3 sequence (P27986 whole entry partner): as the sequence (P27986 whole entry partner) above
Described as above. The conditions noted are these: for IC50: purified enzyme. Format: biochemical. The protocol:
as §1, §2

In another assay the target is T4, PI3Kα (Homo sapiens, UniProt P42336).
T4 construct: purchased BPS Bioscience (San Diego, CA, USA)
T4 sequence (P42336 whole entry): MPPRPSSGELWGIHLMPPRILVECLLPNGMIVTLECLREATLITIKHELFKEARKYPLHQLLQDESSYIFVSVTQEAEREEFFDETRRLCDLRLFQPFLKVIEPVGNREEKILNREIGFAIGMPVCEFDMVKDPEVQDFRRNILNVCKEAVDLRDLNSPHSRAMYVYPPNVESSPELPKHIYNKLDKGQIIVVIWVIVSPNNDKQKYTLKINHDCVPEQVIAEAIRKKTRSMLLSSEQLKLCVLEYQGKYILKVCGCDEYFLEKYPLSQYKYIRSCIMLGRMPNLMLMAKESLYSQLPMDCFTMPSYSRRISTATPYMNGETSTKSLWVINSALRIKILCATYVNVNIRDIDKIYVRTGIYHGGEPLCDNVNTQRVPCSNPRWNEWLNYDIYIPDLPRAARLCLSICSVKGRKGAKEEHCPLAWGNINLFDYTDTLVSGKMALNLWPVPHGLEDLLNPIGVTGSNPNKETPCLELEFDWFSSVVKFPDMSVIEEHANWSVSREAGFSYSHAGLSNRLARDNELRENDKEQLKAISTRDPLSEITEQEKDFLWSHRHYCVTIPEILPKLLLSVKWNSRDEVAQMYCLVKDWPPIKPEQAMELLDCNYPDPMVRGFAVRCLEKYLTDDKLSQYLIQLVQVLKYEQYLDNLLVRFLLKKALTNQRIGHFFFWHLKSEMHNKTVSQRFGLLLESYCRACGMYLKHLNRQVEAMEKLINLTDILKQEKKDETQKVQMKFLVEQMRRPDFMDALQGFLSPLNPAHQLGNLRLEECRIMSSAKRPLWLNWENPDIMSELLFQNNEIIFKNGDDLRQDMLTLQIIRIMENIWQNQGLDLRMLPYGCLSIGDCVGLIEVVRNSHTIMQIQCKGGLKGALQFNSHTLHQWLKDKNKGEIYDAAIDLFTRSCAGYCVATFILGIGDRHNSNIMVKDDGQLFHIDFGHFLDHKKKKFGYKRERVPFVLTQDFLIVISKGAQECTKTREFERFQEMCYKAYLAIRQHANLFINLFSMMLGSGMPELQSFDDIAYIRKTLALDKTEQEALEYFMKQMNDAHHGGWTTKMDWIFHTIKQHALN
T4 sequence (P27986 whole entry partner): as the sequence (P27986 whole entry partner) above
The description is as above. Format: biochemical. To be noted: for IC50: purified enzyme. The protocol:
as §1, §2

A further assay relates to STING. Kind of assay: STING activation in THP-1 ISG Blue cells (QUANTI-Blue, OD 655). The format is cell-based. To be noted: 24 hours, FIG. 1. The protocol: FIG. 1 is a graph of STING activation for different concentrations of compounds as determined by incubating with THP-1 ISG Blue cells for 24 hours, mixing with ‘QUANTI-Blue’ solution and measuring OD 655.
FIG. 2 is a graph of STING activation for different concentrations of DMA01-166 as determined by incubating with THP-1 ISG Blue cells for 24 hours, mixing with ‘QUANTI-Blue’ solution and measuring OD 655.
FIG. 3 is a graph of STING activation for different concentrations of MSA-2 as determined by incubating with THP-1 ISG Blue cells for 24 hours, mixing with ‘QUANTI-Blue’ solution and measuring OD 655.
THP-1 ISG Blue cells analysis is a standard assay to test STING activation in vitro. […] Different concentrations of DMA01-166 (FIG. 2) and MSA-2 (FIG. 3) were incubated with THP-1 ISG Blue cells for 24 hours.

The subject of assay [1] is mouse bone marrow derived dendritic cells (BMDCs). Kind of assay: BMDC activation, upregulation of CD80 and CD86 by flow cytometry. The format is cell-based. To be noted: 24 hours. The protocol:
FIG. 5 are graphs of BMDC activation as measured based on the upregulation of CD80 and CD86 by flow cytometry for different concentrations of DMA01-166 incubated with mouse bone marrow derived dendritic cells (BMDCs) for 24 hours.
STING activation induces BMDC activation. To test the ability of DMA01-166 in activating BMDC, BMDCs activation was measured based on the upregulation of CD80 and CD86 by flow cytometry. […] Different concentrations of DMA01-166 were incubated with BMDC cells for 24 hours.
(In flow cytometry, cells or beads pass a laser one at a time.)

Assay [2] has the same test system. The assay can be described thus: mIFNβ secretion from BMDCs by ELISA. To be noted: 24 hours; for mIFNβ secretion: BMDC supernatants, 10 μM, FIG. 6. Format: cell-based. Here is the method:
FIG. 7 a graph of mIFNβ concentrations as measured by ELISA from the supernatants of mouse bone marrow derived dendritic cells (BMDCs) incubated with different concentrations of DMA01-166 for 24 hours.
STING activation in BMDC results in mIFNβ secretion. […] Different concentrations of DMA01-166 (FIG. 7) were incubated with BMDC cells for 24 hours.
On the technique in general: In an ELISA, binding on a coated surface is turned into a signal by an enzyme label.

Assay [3] has as its system M2 polarized RAW264.7 cells. Kind of assay: TNFα secretion from M2 polarized RAW264.7 cells by ELISA (macrophage polarization). The conditions noted are these: 10 μM, 2 days, vs M2 control group, FIG. 8.
The subject of assay [4] is M2 polarized RAW264.7 cells. Kind of assay: M1 macrophage ratio (CD80 and CD86, flow cytometry) from M2 polarized RAW264.7 cells. Format: cell-based. To be noted: 2 days; for M1 macrophage percentage among all the macrophages: 10 μM, FIG. 9. The protocol:
FIG. 10 is a graph of M1 macrophage ratio as determined by measuring CD80 and CD86 as markers for M1 macrophage by flow cytometry from M2 polarized RAW264.7 cells incubated with different concentrations of DMA01-166 for 2 days.
Macrophage polarization effects of the dual functioning NCEs were further tested by first inducing RAW264.7 cells to M2 macrophage, and then treating with different drugs to test the M1 macrophage percentage among all the macrophages.

Assay [5] has as its system KPC transgenic pancreatic cancer model. Kind of assay: In vivo efficacy on KPC transgenic pancreatic cancer model. To be noted: FIG. 13. The protocol:
FIG. 13 is a graph of the in vivo efficacy on KPC transgenic pancreatic cancer model of an exemplary albumin nanoformulations of: DMA01-166 (D166) and DMA01-166 plus PD-1 antibody (D166+PD-1) with and without paclitaxel (Nano-P).
The in vivo efficacy of DMA01-166 and its albumin nanoformulation was tested on KPC transgenic model.

T1 sequence (P48736 whole entry): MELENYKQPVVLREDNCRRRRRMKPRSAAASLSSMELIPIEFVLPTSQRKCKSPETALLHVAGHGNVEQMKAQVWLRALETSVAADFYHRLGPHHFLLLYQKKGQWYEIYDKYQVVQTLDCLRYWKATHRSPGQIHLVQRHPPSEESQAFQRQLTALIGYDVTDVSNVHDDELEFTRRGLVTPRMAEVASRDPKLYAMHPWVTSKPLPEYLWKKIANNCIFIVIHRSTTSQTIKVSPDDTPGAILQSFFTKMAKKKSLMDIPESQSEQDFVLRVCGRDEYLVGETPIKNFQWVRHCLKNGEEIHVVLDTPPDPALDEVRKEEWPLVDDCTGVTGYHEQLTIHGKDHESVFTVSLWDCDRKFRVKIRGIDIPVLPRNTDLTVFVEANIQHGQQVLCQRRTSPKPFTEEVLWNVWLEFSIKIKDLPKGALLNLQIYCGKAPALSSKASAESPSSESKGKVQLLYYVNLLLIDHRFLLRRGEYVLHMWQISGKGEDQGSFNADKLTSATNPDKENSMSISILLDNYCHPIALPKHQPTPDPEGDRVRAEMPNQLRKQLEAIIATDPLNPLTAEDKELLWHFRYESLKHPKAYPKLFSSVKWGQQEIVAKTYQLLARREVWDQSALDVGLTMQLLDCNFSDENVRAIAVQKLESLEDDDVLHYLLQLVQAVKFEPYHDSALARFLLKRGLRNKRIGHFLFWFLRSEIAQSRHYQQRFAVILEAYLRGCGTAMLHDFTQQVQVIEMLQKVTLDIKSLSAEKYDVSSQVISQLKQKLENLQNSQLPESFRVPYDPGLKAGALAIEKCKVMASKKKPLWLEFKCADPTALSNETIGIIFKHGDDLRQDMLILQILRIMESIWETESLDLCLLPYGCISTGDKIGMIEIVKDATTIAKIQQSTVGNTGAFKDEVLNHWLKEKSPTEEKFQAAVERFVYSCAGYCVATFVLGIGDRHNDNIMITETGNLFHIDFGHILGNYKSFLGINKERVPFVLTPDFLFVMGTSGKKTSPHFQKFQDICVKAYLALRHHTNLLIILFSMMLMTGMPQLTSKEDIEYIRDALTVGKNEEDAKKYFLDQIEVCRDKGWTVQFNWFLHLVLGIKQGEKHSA

For `CCOC(=O)Cn1cc(-c2cccc3cc([C@H](C)NC(=O)c4c(N)nn5cccnc45)n(-c4ccccc4)c(=O)c23)nn1` [DMA01-132], the “Inhibition of PI3Kγ (in words)” value on PI3Kγ is “inhibited both PI3Kγ and PI3Kδ”. For the same molecule, the 50% inhibitory concentration (IC50) at PI3Kγ was determined as 0.845 nM; on PI3K β, 374 nM; at PI3Kδ, 0.381 nM; on PI3Kα it was 372 nM. Also, the “Inhibition of PI3Kδ (in words)” value on PI3Kδ was “inhibited both PI3Kγ and PI3Kδ”.

Turning to `C[C@@H](NC(=O)c1c(N)nn2cccnc12)c1cc2cccc(-c3cn(CCOC(=O)[C@H](N)Cc4cn(C)c5ccccc45)nn3)c2c(=O)n1-c1ccccc1` [DMA01-173, 2-(4-(3-((R)-1-(2-aminopyrazolo[1,5-a]pyrimidine-3-carboxamido)ethyl)-1-oxo-2-phenyl-1,2-dihydroisoquinolin-8-yl)-1H-1,2,3-triazol-1-yl)ethyl 1-methyl-D-tryptophanate], in the assay on STING, the “STING activation (interferon signal)” value is “did not stimulate STING activation”. Further, the “BMDC activation (upregulation of CD80 and CD86)” value in assay [1] (10 μM, FIG. 4) is “did not stimulate DC activation”. Besides, the mIFNβ secretion entry in [2] was “cannot enhance mIFNβ secretion”. In addition, in assay [3], the “Macrophage polarization (TNFα secretion)” value is on record as “showed macrophage polarization effects compared to M2 control group”. In addition, the “M1 macrophage percentage among all the macrophages” value in assay [4] is “mild effects on increasing M1 percentage”.

For `COc1cc2cc(C(=O)CCC(=O)OCCn3cc(-c4cccc5cc([C@@H](C)NC(=O)c6c(N)nn7cccnc67)n(-c6ccccc6)c(=O)c45)nn3)sc2cc1OC` [DMA01-166, (R)-2-(4-(3-(1-(2-aminopyrazolo[1,5-a]pyrimidine-3-carboxamido)ethyl)-1-oxo-2-phenyl-1,2-dihydroisoquinolin-8-yl)-1H-1,2,3-triazol-1-yl)ethyl 4-(5,6-dimethoxybenzo[b]thiophen-2-yl)-4-oxobutanoate], in the assay with STING, the “STING activation (interferon signal)” value is “enhanced interferon signal compared to control and cGAMP group”. The IC50 is 349 nM on PI3Kγ, more than 10000 nM at PI3K β, 1250 nM on PI3Kδ and more than 10000 nM on PI3Kα. Moreover, the “Inhibition of PI3K β (in words)” value on PI3K β is recorded as “no effect”. Also, at PI3Kα, the “Inhibition of PI3Kα (in words)” value is “no effect”. Besides, in assay [1] (FIG. 5), the “BMDC activation at different concentrations” value is on record as “dose independent BMDC activation effect”. For the same molecule, in assay [2], the mIFNβ secretion result is on record as “higher mIFNβ secretion compared to MSA-2”. In addition, in [2] (BMDC, FIG. 7), the “mIFNβ secretion at different concentrations” value was “dose independent BMDC activation effect”. Further, the “M1 macrophage percentage among all the macrophages” value in assay [4] is “higher percentage of M1 macrophage compared to IPI-549, cGAMP, ADU and MSA-2”. Further, in assay [4] (FIG. 10), the “Macrophage polarization (M1 ratio) at different concentrations” value is “dose independent macrophage polarization effect”. Besides, the Median survival in assay [5] was determined as 157.5 days.

For the molecule `CCCCC/C=C/C/C=C\CCCCCCCC(=O)OCCn1cc(-c2cccc3cc([C@@H](C)NC(=O)c4c(N)nn5cccnc45)n(-c4ccccc4)c(=O)c23)nn1` [DMA01-170, 2-(4-(3-((R)-1-(2-aminopyrazolo[1,5-a]pyrimidine-3-carboxamido)ethyl)-1-oxo-2-phenyl-1,2-dihydroisoquinolin-8-yl)-1H-1,2,3-triazol-1-yl)ethyl (9Z,12E)-octadeca-9,12-dienoate], in assay [3], the “Macrophage polarization (TNFα secretion)” value is reported as “showed macrophage polarization effects compared to M2 control group”. Moreover, the “M1 macrophage percentage among all the macrophages” value in assay [4] was “mild effects on increasing M1 percentage”.

With `C[C@H](NC(=O)c1c(N)nn2cccnc12)c1cc2cccc(-c3cn(CCO)nn3)c2c(=O)n1-c1ccccc1` [DMA01-148], at PI3Kγ, the “Inhibition of PI3Kγ (in words)” value is reported as “selectively inhibited PI3Kγ, with similar efficacy compared to IPI-549”. The IC50 at PI3Kγ is 0.864 nM; on PI3K β, 548 nM; on PI3Kδ, 15.4 nM; on PI3Kα it was 1050 nM.

In the case of `C[C@H](NC(=O)c1c(N)nn2cccnc12)c1cc2cccc(-c3cn(CC(=O)O)nn3)c2c(=O)n1-c1ccccc1` [DMA01-143, (S)-2-(4-(3-(1-(2-aminopyrazolo[1,5-a]pyrimidine-3-carboxamido)ethyl)-1-oxo-2-phenyl-1,2-dihydroisoquinolin-8-yl)-1H-1,2,3-triazol-1-yl) acetic acid], the “Inhibition of PI3Kγ (in words)” value on PI3Kγ is “inhibited both PI3Kγ and PI3Kδ”. Besides, the IC50 stood at 5.34 nM at PI3Kγ, 312 nM at PI3K β, 1.36 nM on PI3Kδ and 409 nM on PI3Kα. At PI3Kδ, the “Inhibition of PI3Kδ (in words)” value is “inhibited both PI3Kγ and PI3Kδ”.

In general, IC50 refers to the concentration at which inhibition is half-maximal.
